Experimental data from patent publication US9839642B2, “Beta-tetrazolyl-propionic acids as metallo-beta-lactamase inhibitors” (priority 2014, dated 2017).
pIC50: −log10 of the molar value. Like-named read-outs stand apart in the source and are kept apart here.

Assays:
[1] = test system: Serratia marcescens expressing IMP-1 (CL5741); assay: Antibiotic potentiation activity: synergistic concentration (MITC95) with imipenem, growth by OD600; format: cell-based
Outline: (§1)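 Strains grown overnight at 35° C, resuspended in saline, diluted 1:100 into 1.1×CAMHB; imipenem at 1 μg/ml or 4 μg/ml with test compound 200 μM to 0.195 μM. Incubated 22 hours to 24 hours at 35° C, OD600 read; MITC95 is lowest compound concentration inhibiting 95% of growth.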

[2] = test system: Klebsiella pneumoniae expressing VIM-1 (IHMA599644); assay: as above; format: cell-based
Outline: as §1

[3] = test system: Escherichia coli expressing NDM-1 (CLB30016); assay: as above; format: cell-based
Outline: as §1

[4] = molecular target: NDM-1 (Klebsiella pneumoniae, UniProt C7C422); assay: Enzyme activity: determination of IC50, fluorescence assay with CCF2-FA substrate; format: biochemical; details: CCF2-FA 1.25 μM, 2 hours at 25° C., read-out: NDM1 IC50
Outline: (§2)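 Enzyme (1 pM NDM-1, 2 pM IMP-1, 30 pM VIM-1) incubated with inhibitor (20 to 0.00063 μM) and 1.25 μM CCF2-FA in 100 mM KH2PO4 pH 7, 0.005% Tween-20, 10 μM ZnSO4, 2 h at 25 °C. Fluorescence read at 460 nm (ex 405 nm); IC50 by 4-parameter fit.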

[5] = molecular target: IMP-1 (Serratia marcescens, UniProt P52699); assay: as above; format: biochemical; details: CCF2-FA 1.25 μM, 2 hours at 25° C., read-out: IMP1 IC50
Outline: as §2

[6] = molecular target: VIM-1 (Pseudomonas aeruginosa, UniProt A0A0F7KYQ8); assay: as above; format: biochemical; details: CCF2-FA 1.25 μM, 2 hours at 25° C., read-out: VIM1 IC50
Outline: as §2

[7] = S. marcescens CL5741 (IMP-1), 95% inhibition of growth
[8] = K. pneumoniae IHMA599644 (VIM-1), 95% inhibition of growth
[9] = E. coli CLB30016 (NDM-1), 95% inhibition of growth
[10] = 95% inhibition of bacterial growth, strain CL5741
[11] = 95% inhibition of bacterial growth, strain IHMA599644
[12] = 95% inhibition of bacterial growth, strain CLB30016

Sequence of NDM-1 (C7C422 29-270, looked up, species assumed): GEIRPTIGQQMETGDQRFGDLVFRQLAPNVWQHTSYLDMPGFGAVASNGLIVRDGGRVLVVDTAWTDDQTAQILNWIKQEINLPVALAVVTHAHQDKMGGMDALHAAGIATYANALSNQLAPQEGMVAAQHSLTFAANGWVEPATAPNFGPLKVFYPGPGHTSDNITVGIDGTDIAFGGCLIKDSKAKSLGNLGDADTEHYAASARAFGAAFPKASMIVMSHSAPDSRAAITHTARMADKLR
Sequence of IMP-1 (P52699 19-246, looked up, species assumed): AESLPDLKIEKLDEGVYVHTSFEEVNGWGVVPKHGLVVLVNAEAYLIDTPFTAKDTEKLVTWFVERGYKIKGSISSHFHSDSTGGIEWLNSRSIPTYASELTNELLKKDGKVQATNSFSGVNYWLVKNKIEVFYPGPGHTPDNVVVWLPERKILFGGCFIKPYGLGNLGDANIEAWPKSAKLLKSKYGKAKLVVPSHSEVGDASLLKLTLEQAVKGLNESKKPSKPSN

Row | SMILES | IMP1 SM5741 MITC95 [1, 7] | VIM1 KP599644 MITC95 [2, 8] | NDM1 EC30016 MITC95 [3, 9] | pIC50 ([4]; NDM-1 enzyme 1 pM) | pIC50 ([5]; IMP-1 enzyme 2 pM) | pIC50 ([6]; VIM-1 enzyme 30 pM) | IMP1 SM5741 MITC95 [1, 10] | VIM1 KP599644 MITC95 [2, 11] | NDM1 EC30016 MITC95 [3, 12] | pIC50 ([4]; enzyme 1 pM) | pIC50 ([5]; enzyme 2 pM) | pIC50 ([6]; enzyme 30 pM)
1 | CCC[C@H](C(=O)O)[C@H](Cc1ccc(C2CCN(C=N)CC2)cc1)c1nnn[nH]1 [Example 297, (S)-2-((S)-2-(4-(1-(iminomethyl)piperidin-4-yl)phenyl)-1-(1H-tetrazol-5-yl)ethyl)pentanoic acid] | 6.2 µM | 18.8 µM | 4.7 µM | 7.59 | 6.70 | 7.60 | – | – | – | – | – | –
2 | CCC[C@H](C(=O)O)[C@H](Cc1cccc(-c2ccnc(N3CCNCC3)c2)c1)c1nn[nH]n1 [Example 340, (2S)-2-[(1S)-2-[3-(2-piperazin-1-ylpyridin-4-yl)phenyl]-1-(2H-tetrazol-5-yl)ethyl]pentanoic acid] | 4.7 µM | 50 µM | 38 µM | 7.34 | 6.74 | 8.46 | – | – | – | – | – | –
3 | CCC[C@H](C(=O)O)[C@H](Cc1ccc(C2CCN(C(=N)N)CC2)nc1)c1nnn[nH]1 [Example 298, (S)-2-((S)-2-(6-(1-carbamimidoylpiperidin-4-yl)pyridin-3-yl)-1-(1H-tetrazol-5-yl)ethyl)pentanoic acid] | 25 µM | 12.5 µM | 1.6 µM | 6.96 | 5.57 | 8.00 | – | – | – | – | – | –
4 | CC(C)C[C@H](C(=O)O)[C@H](Cc1ccc(N2CCC(CO)CC2)nc1)c1nnn[nH]1 [Example 314, (2S)-2-[(1S)-2-{6-[4-(hydroxymethyl)piperidin-1-yl]pyridin-3-yl}-1-(1H-tetrazol-5-yl)ethyl]-4-methylpentanoic acid] | 12.5 µM | 75 µM | 6.2 µM | 7.31 | 6.72 | 7.80 | – | – | – | – | – | –
5 | CCC[C@H](C(=O)O)[C@H](Cc1ccccc1-c1cccnc1)c1nn[nH]n1 [Example 396, (2S)-2-[(1S)-2-(2-pyridin-3-ylphenyl)-1-(2H-tetrazol-5-yl)ethyl]pentanoic acid] | 75 µM | 50 µM | 9.4 µM | 8.04 | 5.55 | 7.74 | – | – | – | – | – | –
6 | CC(C)C[C@H](C(=O)O)[C@H](Cc1ccc(-c2ccc(CN)cc2)cn1)c1nn[nH]n1 [Example 174, (2S)-2-[(1S)-2-{5-[4-(aminomethyl)phenyl]pyridin-2-yl}-1-(2H-tetrazol-5-yl)ethyl]-4-methylpentanoic acid] | – | – | – | – | – | – | 50 µM | 25 µM | 9.4 µM | 6.62 | 5.57 | 6.96
7 | CC(C)(C)[C@H](C(=O)O)[C@H](Cc1ccccc1)c1nnn[nH]1 [Example 258, (2R,3S)-2-(tert-butyl)-4-phenyl-3-(1H-tetrazol-5-yl)butanoic acid] | 2.3 µM | 100 µM | 11 µM | 7.04 | 7.46 | 7.00 | – | – | – | – | – | –
8 | CCC[C@H](C(=O)O)[C@H](Cc1cnc(S(C)(=O)=O)nc1)c1nnn[nH]1 [Example 286, (S)-2-((S)-2-(2-(methylsulfonyl)pyrimidin-5-yl)-1-(1H-tetrazol-5-yl)ethyl)pentanoic acid] | >200 µM | 18.8 µM | 25 µM | 5.34 | < 4.70 | 7.43 | – | – | – | – | – | –
9 | CCC[C@H](C(=O)O)[C@H](Cc1ccc(NC(C)CN)cc1)c1nn[nH]n1 (stereo partly drawn) [Example 222, (2S)-2-[(1S)-2-{4-[(2-amino-1-methylethyl)amino]phenyl}-1-(2H-tetrazol-5-yl)ethyl]pentanoic acid] | – | – | – | – | – | – | 25 µM | 25 µM | 18.8 µM | 6.15 | 5.77 | 8.04
10 | CC(C)[C@H](C(=O)O)[C@H](Cc1ccc(-c2cn[nH]c2)cc1)c1nnn[nH]1 [Example 62, (2S,3S)-4-(4-(1H-pyrazol-4-yl)phenyl)-2-isopropyl-3-(1H-tetrazol-5-yl)butanoic acid] | – | – | – | – | – | – | 6.2 µM | 18.8 µM | 9.4 µM | 8.19 | 7.18 | 8.16
11 | CC(C)[C@H](C(=O)O)[C@H](Cc1cnc(N)nc1)c1nnn[nH]1 [Example 128, (2S,3S)-4-(2-aminopyrimidin-5-yl)-2-isopropyl-3-(1H-tetrazol-5-yl)butanoic acid] | – | – | – | – | – | – | >200 µM | 50 µM | 9.4 µM | 6.82 | 4.80 | 7.29
12 | CCC[C@H](C(=O)O)[C@H](Cc1cccc(-c2ccc(C(N)=O)cc2)c1)c1nn[nH]n1 [Example 351, (2S)-2-[(1)-2-(4′-carbamoylbiphenyl-3-yl)-1-(2H-tetrazol-5-yl)ethyl]pentanoic acid] | 0.59 µM | 25 µM | 7.8 µM | 9.11 | 7.62 | 8.80 | – | – | – | – | – | –
13 | CCC[C@H](C(=O)O)[C@H](Cc1ccc(C(N)=O)cn1)c1nnn[nH]1 [Example 93, (S)-2-((S)-2-(5-carbamoylpyridin-2-yl)-1-(1H-tetrazol-5-yl)ethyl) pentanoic acid] | – | – | – | – | – | – | >200 µM | 25 µM | 6.2 µM | 6.24 | < 4.70 | 7.05
14 | CC(C)[C@H](C(=O)O)[C@H](Cc1ccc(Br)nc1)c1nnn[nH]1 [Example 91, (2S,3S)-4-(6-bromopyridin-3-yl)-2-isopropyl-3-(1H-tetrazol-5-yl)butanoic acid] | – | – | – | – | – | – | 50 µM | 12.5 µM | 7.8 µM | 7.49 | 5.66 | 8.10
15 | CCC[C@H](C(=O)O)[C@H](Cc1ccc(C2CCNCC2)nc1)c1nnn[nH]1 [Example 408, (S)-2-((S)-2-(6-(piperidin-4-yl)pyridin-3-yl)-1-(1H-tetrazol-5-yl)ethyl)pentanoic acid] | 75 µM | 25 µM | 7.813 µM | 6.60 | 5.46 | 8.19 | – | – | – | – | – | –
16 | CCC[C@H](C(=O)[O-])[C@H](Cc1ccc(C2CC[N+](C)(C)CC2)cc1)c1nnn[nH]1 [Example 294, (S)-2-((S)-2-(4-(1,1-dimethylpiperidin-1-ium-4-yl)phenyl)-1-(1H-tetrazol-5-yl)ethyl)pentanoate] | 9.4 µM | 25 µM | 12.5 µM | 6.77 | 6.16 | 7.12 | – | – | – | – | – | –
17 | CC(C)C[C@H](C(=O)O)[C@H](Cc1ccc(Oc2ccnc(N3CCNCC3)c2)nc1)c1nn[nH]n1 [Example 379, (2S)-4-methyl-2-[(1S)-2-{6-[(2-piperazin-1-ylpyridin-4-yl)oxy]pyridin-3-yl}-1-(2H-tetrazol-5-yl)ethyl]pentanoic acid] | 16 µM | 100 µM | 9.4 µM | 7.49 | 6.43 | 8.15 | – | – | – | – | – | –
